The data set in a line: Heating of the separated supernatant in a thermostatic bath: separation into amine phase and aqueous phase. The data set is classed as physicochemical. An excerpt:
The element 15 that separates the supernatant phase F into the aqueous phase H and the organic phase J and recovers the tertiary amine recovers the tertiary amine included in the supernatant phase F. As the element 15 that separates the supernatant phase F into the aqueous phase H and the organic phase J and recovers the tertiary amine, the mechanism of heating the supernatant phase F is preferable. For example, the supernatant phase F is stored in a second container, not shown, and the supernatant phase F is heated in the second container. As the temperature of the supernatant phase F is increased, the compatibility of the tertiary amine compounds of the embodiment with water changes, and supernatant phase F separates into the organic phase and the aqueous phase. The supernatant phase F separates into the aqueous phase H and the organic phase J at a higher temperature than the first mixture D which separates into the phases. It is preferable that the supernatant phase F is heated to a temperature higher than the temperature of the first mixture (the temperature at which the first mixture D is phase-separated (the temperature at which the supernatant phase F and the concentrated phase G are separated separately)). It is preferable that the supernatant phase F is heated to a temperature 5[° C.] or higher than the temperature of the first mixture D (the temperature at which the first mixture D is phase-separated (the temperature at which the supernatant phase F and the concentrated phase G are separated separately)). It is preferable that the supernatant phase F is heated to a temperature 10[° C.] or higher than the temperature of the first mixture D (the temperature at which the first mixture D is phase-separated (the temperature at which the supernatant phase F and the concentrated phase G are separated separately)). It is preferable that the supernatant phase F is heated to a temperature 20[° C.] or higher than the temperature of the first mixture D (the temperature at which the first mixture D is phase-separated (the temperature at which the supernatant phase F and the concentrated phase G are separated separately)). It is preferable that the supernatant phase F is heated to a temperature 20 [° C.] or higher than the temperature of the first mixture D. It is preferable that the supernatant phase F is heated to a temperature 30 [° C.] or higher than the temperature of the first mixture D (the temperature at which the first mixture D is phase-separated (the temperature at which the supernatant phase F and the concentrated phase G are separated separately)). The supernatant phase F is preferably heated to 35[° C.] or more and less than 90[° C.]. From the viewpoint of reducing energy consumption, it is more preferably that the supernatant phase F is heated to 35[° C.] or more and 75[° C.] or less. The supernatant phase F is preferably phase-separated at 35 [° C.] or more and less than 90[° C.]. From the viewpoint of reducing energy consumption, the supernatant phase F is more preferably phase-separated at 35[° C.] or more and less than 90[° C.]. It is preferable to use waste heat generated at a plant or the like to heat the supernatant phase F.
When the separated supernatant solution is heated in a thermostatic bath at 70[° C.], it is separated into an amine phase and an aqueous phase. When the amine phase is separated and used for the same test, the salt removal rate of 97.5 [%] is obtained, and the concentration of the lower phase being separated of 21.2 [wt %] is obtained, which is the similar results as in the first test.

Where [1] appears, read: supernatant of the S/F 4.0 test.
[2] abbreviates: supernatant of the S/F 6.0 test.
The mark [3] stands for this setting: supernatant of the S/F 7.0 test.
The mark [4] stands for this setting: supernatant of the S/F 10.0 test.

Structures are written as SMILES.

Turning to `CCOC(=O)N1CCN(CCCN2CCN(C(=O)OCC)CC2)CC1` [chemical formula (2-1)], the “Separating Temperature Water/Amine” value runs as follows: under setting [1], 70 °C; under setting [2], 70 °C; under setting [3], 50 °C; under setting [4], 70 °C.
Consider `C1CCN(CCCN2CCCC2)C1` [chemical formula (1-2)], for which the “Separating Temperature Water/Amine” value amounted to 70 °C under setting [1], 70 °C under setting [2], 60 °C under setting [3] and 70 °C under setting [4].

The values are drawn from patent publication US20240308878A1, “WATER TREATMENT SYSTEM, WATER TREATMENT METHOD, AND AMINE SOLUTION” (KABUSHIKI KAISHA TOSHIBA, priority 2023, published 2024).
